Source: PubChem BioAssay AID1996
In brackets after ≈: the same amount, converted by molar mass.

Conditions: buffer; pH 7.4; 200.0 µM

Row | Structure (SMILES) | solubility kinetic [mg/mL]
1 | COc1ccc(-c2nc(N)ncc2-c2ccc(Cl)cc2)c(O)c1 | < 0.0002
2 | O=C(CCCC(=O)c1ccccc1)Nc1ccc(F)cc1 | 0.0049 (≈ 17.2 µM)
3 | O=C1NC(=O)N(c2ccccc2)C1=O | > 0.0285
4 | CC(=O)Nc1c(C)nn(-c2ccc([N+](=O)[O-])cc2)c1C | > 0.0411
5 | O=C(NCc1cccc(C(F)(F)F)c1)c1ccc2c(c1)OCO2 | 0.0348 (≈ 108 µM)
6 | CCOC(=O)c1ccc(S(=O)(=O)N2CCN(CCc3ccncc3)CC2)cc1 | > 0.0605
7 | COc1ccc(C(=O)CCC(=O)NCCc2ccccc2F)cc1 | 0.0169 (≈ 51.3 µM)
8 | O=C(Nc1nccs1)C1CCCN1/C=C/C(=O)C(F)(F)F (stereo unspecified) | 0.0461 (≈ 144 µM)
9 | Cc1cc(Cl)ccc1OC(C)C(=O)NCCCn1ccnc1 (stereo unspecified) | > 0.0483
10 | N#C/C(=C\c1c[nH]c2ccc(Br)cc12)c1ccccn1 | 0.0008 (≈ 2.47 µM)
11 | Cc1ccc(S(=O)(=O)c2nc(-c3cccs3)oc2N2CCC(C(N)=O)CC2)cc1 | > 0.0647
12 | Cc1[nH]c(=O)c(C#N)c(C)c1Cl | 0.026 (≈ 142 µM)
13 | N#Cc1c(F)cccc1NCc1cccnc1 | 0.0332 (≈ 146 µM)
14 | Cc1nccn1CCOc1ccc(Cl)cc1.O=C(O)C(=O)O | 0.045
15 | COc1ccc(/C=C/C(=O)OCC(=O)Nc2ncc(Cl)cc2Cl)cc1 | 0.0081 (≈ 21.2 µM)
16 | Cc1[nH]c(=O)c(Cc2ccccc2)c(O)c1C#N | > 0.036
17 | COc1ccc(C2=NOC(C(=O)Nc3cc(C)on3)C2)cc1OC (stereo unspecified) | > 0.0497
18 | Cc1[nH]c(=O)[nH]c(=O)c1S(=O)(=O)N1CCCCC1 | > 0.041
19 | CCOc1ccc(C(=O)N2CCN(c3ccccc3)CC2)cc1 | 0.0465 (≈ 150 µM)
20 | Cc1c(Cl)cccc1NC(=S)NCc1ccc(F)cc1 | 0.0037 (≈ 12 µM)
21 | Cc1ccc(CN2CC(C(=O)Nc3cccc(C)n3)CC2=O)cc1 (stereo unspecified) | > 0.0485

Row | Structure (SMILES) | solubility kinetic [mg/mL]
22 | CCOC(=O)c1cc(C(=O)NC(C)c2ccccc2)c(C)[nH]c1=O (stereo unspecified) | 0.0027 (≈ 8.22 µM)
23 | Cc1ccc2cc(C#N)c(N3CCN(C(=O)c4cccs4)CC3)nc2c1 | < 0.0002
24 | Cc1ccc(OCCCN2CCOCC2)cc1 | 0.0267 (≈ 113 µM)
25 | CCOC(=O)C1CCCN(C(=O)CNC(=O)c2ccc(Br)o2)C1 (stereo unspecified) | > 0.0581
26 | O=C(NCC(O)c1ccc([N+](=O)[O-])cc1)C1CCCCC1 (stereo unspecified) | 0.0284 (≈ 97.1 µM)
27 | CCOc1ccccc1NC(=O)c1cccc2ccccc12 | 0.0077 (≈ 26.4 µM)
28 | COc1cccc(SCC(=O)N2CCN(c3ccccc3)CC2)c1 | 0.0342 (≈ 99.9 µM)
29 | CC(=O)Nc1ccc(C(=O)OCC(=O)N(C)C2CCCCC2)cc1 | 0.036 (≈ 108 µM)
30 | CSc1ccccc1C(=O)Nc1c(C)cccc1C | 0.0229 (≈ 84.4 µM)
31 | O=C(/C=C/c1ccc([N+](=O)[O-])cc1)OCC(=O)c1ccc[nH]1 | 0.003 (≈ 9.99 µM)
32 | CCOc1nc(-c2ccccc2)ncc1Oc1ccccc1 | < 0.0003
33 | Cc1cc(C(=O)Nc2ccc(Br)cn2)sc1C | 0.0022 (≈ 7.07 µM)
34 | O=C(CNC(=O)c1ccc(N2CCCC2=O)cc1)Nc1ccc(F)c(F)c1F | 0.0055 (≈ 14.1 µM)
35 | Cc1cc(C)c(NC(=O)c2cccc(NC(=O)c3ccco3)c2)c(C)c1 | 0.0443 (≈ 127 µM)
36 | Cc1ccc(N2C(=O)c3ccccc3C2C(=O)c2ccc(C)c(C)c2O)cc1 (stereo unspecified) | 0.0106 (≈ 28.5 µM)
37 | CCC(=O)Nc1ccc(C=C(C(C)=O)C(C)=O)cc1 | > 0.0389
38 | O=C(COc1cccc(F)c1)Nc1nc(-c2cccnc2)cs1 | 0.0073 (≈ 22.2 µM)
39 | COc1ccc(C(=O)N(C)Cc2ccccc2F)cc1S(=O)(=O)N1CCCC1 | > 0.061
40 | COc1ccc(S(=O)(=O)Oc2cc(C(=S)N3CCOCC3)ccc2OC)cc1 | 0.0254 (≈ 60 µM)
41 | Cc1ccc(S(=O)(=O)NCc2csc(-c3cccs3)n2)cc1 | 0.0007 (≈ 2 µM)
42 | COc1ccc(CC(=O)Nc2ccccc2N2CCCC2)cc1OC | > 0.0511

Row | Structure (SMILES) | solubility kinetic [mg/mL]
43 | NCCNC[C@@H]1COC2(CCCCCCCCCCC2)O1 | 0.0327 (≈ 110 µM)
44 | Nn1c(Nc2ccc(Cl)cc2)nncc1=O | > 0.0356
45 | Cc1cccc(NC(=O)Cn2c(=O)oc3ccccc32)n1 | > 0.0425
46 | O=S(=O)(Nc1ccc(Cl)cn1)c1ccc(F)cc1 | > 0.043
47 | O=C(c1cn(Cc2ccccc2)c2ccccc12)N1CCCCC1 | 0.0306 (≈ 96.1 µM)
48 | CCOc1ccccc1C(=O)NCC(=O)OCCOc1cccc(Cl)c1 | 0.034 (≈ 90 µM)
49 | Cc1ccc(C(=O)OCC(=O)NCc2ccco2)cc1C | 0.0128 (≈ 44.6 µM)
50 | COc1cccc(N2CCN(C(=S)Nc3ccc(C)cc3C)CC2)c1 | 0.0006 (≈ 1.69 µM)
51 | O=C1Nc2ccc(Br)cc2C1=C1CCCCC1 | 0.0074 (≈ 25.3 µM)
52 | CS(=O)(=O)N1CCCC(C(=O)Nc2ccccc2Cl)C1 (stereo unspecified) | > 0.0475
53 | COc1cccc(/C=C/C(=O)NCc2ccc(S(N)(=O)=O)cc2)c1 | 0.0127 (≈ 36.7 µM)
54 | C#CCSc1nc(=O)c2cccnc2n1-c1ccc(C)cc1 | > 0.0461
55 | CCOC(=O)C1(Cc2ccccc2)CCCN(CCO)C1 (stereo unspecified) | > 0.0437
56 | Cc1ccc(N2C(=O)Nc3ccccc3S2(=O)=O)cc1Cl | 0.0008 (≈ 2.48 µM)
57 | COc1ccc(/C=C/C(=O)NC(=S)Nc2ccccn2)cc1 | 0.0018 (≈ 5.74 µM)
58 | CCCCn1c(SCC(=O)NC2CC2)nc2ccccc2c1=O | 0.0026 (≈ 7.84 µM)
59 | Cc1occc1C(=O)N1CCN(c2ccc([N+](=O)[O-])cc2)CC1 | 0.0354 (≈ 112 µM)
60 | Cc1cc(C)c(Nc2ncnc(N)n2)c(C)c1 | > 0.0344
61 | CCOc1ccccc1CN1C2CCC1CC(c1ccc(C)cc1)C2 (stereo unspecified) | 0.035 (≈ 104 µM)
